# Measurements published in patent US5268308A, “Immunoassay for pyridostigmine” (priority 1989, dated 1993).
# Where “and” joins values, the source holds several entries; their conditions need not be identical. Identical values can stand only once. Like-named read-outs stand apart in the source and are kept apart here.
# What was measured:
# [1] = biological solutions, particularly plasma and blood; cited from earlier work
# [2] = Pyridostigmine level in rat sera after intramuscular dose, by RIA; assay type: in vivo; conditions: for concentration at 5 min / concentration at 10 min / concentration at 0.25 h / concentration at 0.5 h / concentration at 1 h / concentration at 2 h / concentration at 3 h / concentration at 4 h: rat, serum, im
# Experimental: (§1) To further validate the RIA and the antibody specificity of the present invention, additional rat studies were conducted. Male rats were housed two per cage at 23° C. with a twelve hour on-off light cycle. The animals were given food and water ad libitum. After sixty days, food was withheld for twelve hours. Then pyridostigmine was administered (1.0 mg. of pyridostigmine bromide in physiologic saline/Kg) intramuscularly to the rats weighing between 450 and 550 grams.
# (§2) Groups of three animals were sacrificed by using inhalation anesthetic, Fluothane (0.01% thymol, w/w; and 0.00025% ammonia, w/w) Ayerst Laboratories, New York, N.Y. at various times after dosing, namely at 0, 5, 10, 15, 30, 60 minutes and at 2, 3, 4 and 6 hours. Blood was collected via heart puncture, and serum was separated by centrifugation at 2000 xg for 20 minutes. Table 4 gives the pyridostigmine level in the plasma of three male rats for each time interval as determined by the RIA of the present invention.
# [3] = Pyridostigmine in various rat organs after intramuscular dose, by RIA; assay type: in vivo; conditions: 1.0 mg/kg i.m.
# Experimental: as §1, §2
# The brain, fat, heart, muscle and spleen were also removed from the sacrificed rats. The organs from each time period were pooled and kept frozen at -85° C. until analyzed. In preparing tissue homogenates for analysis, tissue samples were first brought to room temperature. Next the tissue samples were washed with ice-cold saline, blotted dry, weighed and homogenized in an ice-cold solution ([…], 0.5%. Triton X, 150 mM sodium chloride, pH 7.4; 2:1, v/w) with a Biohomogenizer (from Biospect Products Inc., Bartlesville, OK), cooling the tubes with ice as needed. The suspension was centrifuged at 15,000 ×g for 30 minutes at […] The supernatant was collected, and the pellet was mixed once more (1:1, w/v) with the solution, and centrifuged as described earlier. The supernatants for like samples were combined. The RIA of the present invention was then followed to determine the amounts of pyridostigmine in the various rat organs. The results of the RIA are given in.
# [4] = target: Pyridostigmine Antibody; test: Cross-reactivity with pyridostigmine antibody in RIA (competition with labeled pyridostigmine); assay type: binding, rabbit (male New Zealand white); conditions: labeled pyridostigmine 5000 DPM; maximum tested 500 ng
# Experimental: Antibodies to the pyridostigmine-BSA immunogen were produced by injecting male New Zealand white rabbits. Prior to injection, the immunogen was emulsified with an equal volume of complete Freund's adjuvant, purchased from Difco Laboratories. The initial immunization consisted of 0.8 mg of protein injected intracutaneously into the back of the rabbits. Booster injections containing 0.8 mg of immunogen and incomplete Freund's adjuvant were administered every one or two months for the next seven months. Blood was collected one week after each booster injection from the central ear vein. The blood was allowed to clot at room temperature and then centrifuged at 1500×g for 15 minutes. The separated serum was stored frozen at -20° C. until assayed for the presence of pyridostigmine antibody. […] FIG. 1 is the antibody dilution curve for pyridostigmine.
# In the assay procedure tritiated pyridostigmine having specificity of […] was used as tracer. The dilution of tracer, antisera and pyridostigmine standards were made using 0.01 M phosphate buffer containing 150 mM sodium chloride with a pH of 7.4.. […] Both standard and sample tubes were always analyzed in duplicate. The assay was carried out according to the protocol shown in. Table 1 with the reagents were added to the assay tubes in the order shown in.
# According to the protocol for the RIA of the present invention, after the addition of antisera, the contents of the tubes were mixed and incubated for 3 hours at 4° C. The antigen which bound to the antibody was separated by adding 100% saturated ammonium sulfate and centrifuging at 2500×g for 15 minutes. After aspiration of the supernatant, the precipitate was washed one time with 50% saturated ammonium sulfate; then the mixture was centrifuged and the supernatent removed. The precipitate was dissolved in 1.0 ml of distilled water, and the solution was transferred to a scintillation vial containing 10.0 ml of acquasol.
# Cross-reactivity of various compounds with pyridostigmine antibody was determined in the RIA. […] Each compound was tested for cross-reactivity with the antibody. The maximum concentration of each compound tested was 500 ng.
# [5] = test system: patients; conditions: cited from earlier work
# [6] = cited from earlier work
smiles,measurement,setting,value
CN(C)C(=O)Oc1ccc[n+](C)c1 [Pyridostigmine],in vitro hydrolysis,[1],extensive in vitro hydrolysis
same,"Pyridostigmine in the Rat Sera, Mean ± S.D.","[2]; 0 min, 1.0 mg/kg pyridostigmine bromide i.m., male rats",0 ng/mL
same,"Pyridostigmine in the Rat Sera, individual animals","[2]; 0 min, 1.0 mg/kg pyridostigmine bromide i.m., male rats #1, #2, #3 in order",0 ng/mL
same,"Pyridostigmine in the Rat Sera, individual animals","[2]; 5 min, 1.0 mg/kg i.m., male rats #1, #2 in order, 1 mg/kg",550 ng/mL
same,"Pyridostigmine in the Rat Sera, individual animals","[2]; 10 min, 1.0 mg/kg i.m., male rats #1, #2 in order, 1 mg/kg",470 ng/mL
same,"Pyridostigmine in the Rat Sera, individual animals","[2]; 15 min, 1.0 mg/kg i.m., male rats #1, #2, #3 in order, 1 mg/kg",300 ng/mL
same,"Pyridostigmine in the Rat Sera, individual animals","[2]; 30 min, 1.0 mg/kg i.m., male rats #1, #2, #3 in order, 1 mg/kg",220 ng/mL
same,"Pyridostigmine in the Rat Sera, individual animals","[2]; 60 min, 1.0 mg/kg i.m., male rats #1, #2, #3 in order, 1 mg/kg",110 ng/mL
same,"Pyridostigmine in the Rat Sera, individual animals","[2]; 2 hr, 1.0 mg/kg i.m., male rats #1, #2, #3 in order, 1 mg/kg, 120 min",25 ng/mL and 15 ng/mL
same,"Pyridostigmine in the Rat Sera, individual animals","[2]; 3 hr, 1.0 mg/kg i.m., male rats #1, #2 in order, 1 mg/kg, 180 min",14 ng/mL
same,"Pyridostigmine in the Rat Sera, individual animals","[2]; 4 hr, 1.0 mg/kg i.m., male rats #1, #2, #3 in order, 1 mg/kg, 240 min",5 ng/mL and 6.5 ng/mL
same,concentration at 5 min,"[2]; 1 mg/kg, 5 min, 1.0 mg/kg i.m., male rats #1, #2 in order, read-out: Pyridostigmine in the Rat Sera, individual animals",600 ng/mL
same,concentration at 5 min,"[2]; 1 mg/kg, 5 min, 1.0 mg/kg i.m., male rats, read-out: Pyridostigmine in the Rat Sera, Mean ± S.D.",575 ± 35.4 ng/mL
same,concentration at 10 min,"[2]; 1 mg/kg, 10 min, 1.0 mg/kg i.m., male rats #1, #2 in order, read-out: Pyridostigmine in the Rat Sera, individual animals",450 ng/mL
same,concentration at 10 min,"[2]; 1 mg/kg, 10 min, 1.0 mg/kg i.m., male rats, read-out: Pyridostigmine in the Rat Sera, Mean ± S.D.",460 ± 14.1 ng/mL
same,concentration at 0.25 h,"[2]; 1 mg/kg, 15 min, 1.0 mg/kg i.m., male rats #1, #2, #3 in order, read-out: Pyridostigmine in the Rat Sera, individual animals",400 ng/mL
same,concentration at 0.25 h,"[2]; 1 mg/kg, 15 min, 1.0 mg/kg i.m., male rats, read-out: Pyridostigmine in the Rat Sera, Mean ± S.D.",387 ± 80.8 ng/mL
same,concentration at 0.5 h,"[2]; 1 mg/kg, 30 min, 1.0 mg/kg i.m., male rats #1, #2, #3 in order, read-out: Pyridostigmine in the Rat Sera, individual animals",250 ng/mL
same,concentration at 0.5 h,"[2]; 1 mg/kg, 30 min, 1.0 mg/kg i.m., male rats, read-out: Pyridostigmine in the Rat Sera, Mean ± S.D.",290 ± 96.4 ng/mL
same,concentration at 1 h,"[2]; 1 mg/kg, 60 min, 1.0 mg/kg i.m., male rats #1, #2, #3 in order, read-out: Pyridostigmine in the Rat Sera, individual animals",140 ng/mL
same,concentration at 1 h,"[2]; 1 mg/kg, 60 min, 1.0 mg/kg i.m., male rats, read-out: Pyridostigmine in the Rat Sera, Mean ± S.D.",130 ± 17.3 ng/mL
same,concentration at 2 h,"[2]; 1 mg/kg, 2 hr, 1.0 mg/kg i.m., male rats #1, #2, #3 in order, read-out: Pyridostigmine in the Rat Sera, individual animals",24 ng/mL
same,concentration at 2 h,"[2]; 1 mg/kg, 2 hr, 1.0 mg/kg i.m., male rats, read-out: Pyridostigmine in the Rat Sera, Mean ± S.D.",21 ± 5.51 ng/mL
same,concentration at 3 h,"[2]; 1 mg/kg, 3 hr, 1.0 mg/kg i.m., male rats #1, #2 in order, read-out: Pyridostigmine in the Rat Sera, individual animals",12 ng/mL
same,concentration at 3 h,"[2]; 1 mg/kg, 3 hr, 1.0 mg/kg i.m., male rats, read-out: Pyridostigmine in the Rat Sera, Mean ± S.D.",13 ± 1.41 ng/mL
same,concentration at 4 h,"[2]; 1 mg/kg, 4 hr, 1.0 mg/kg i.m., male rats #1, #2, #3 in order, read-out: Pyridostigmine in the Rat Sera, individual animals",7.5 ng/mL
same,concentration at 4 h,"[2]; 1 mg/kg, 4 hr, 1.0 mg/kg i.m., male rats, read-out: Pyridostigmine in the Rat Sera, Mean ± S.D.",6 ± 1.26 ng/mL
same,Pyridostigmine in rat organs,"[3]; Brain, 1 HR",5.06 ng/mg protein
same,Pyridostigmine in rat organs,"[3]; Brain, 2 HR",4.63 ng/mg protein
same,Pyridostigmine in rat organs,"[3]; Brain, 3 HR",3.92 ng/mg protein
same,Pyridostigmine in rat organs,"[3]; Brain, 4 HR",3.55 ng/mg protein
same,Pyridostigmine in rat organs,"[3]; Brain, 6 HR",2.62 ng/mg protein
same,Pyridostigmine in rat organs,"[3]; Brain, 5 min",3.63 ng/mg protein
same,Pyridostigmine in rat organs,"[3]; Brain, 10 min",7.65 ng/mg protein
same,Pyridostigmine in rat organs,"[3]; Brain, 15 min",6.32 ng/mg protein
same,Pyridostigmine in rat organs,"[3]; Brain, 30 min",6.11 ng/mg protein
same,Pyridostigmine in rat organs,"[3]; Fat, 1 HR",8.69 ng/mg protein
same,Pyridostigmine in rat organs,"[3]; Fat, 2 HR",6.46 ng/mg protein
same,Pyridostigmine in rat organs,"[3]; Fat, 3 HR",5.73 ng/mg protein
same,Pyridostigmine in rat organs,"[3]; Fat, 4 HR",3.26 ng/mg protein
same,Pyridostigmine in rat organs,"[3]; Fat, 6 HR",2.91 ng/mg protein
same,Pyridostigmine in rat organs,"[3]; Fat, 5 min",5.98 ng/mg protein
same,Pyridostigmine in rat organs,"[3]; Fat, 10 min",8.11 ng/mg protein
same,Pyridostigmine in rat organs,"[3]; Fat, 15 min",15.37 ng/mg protein
same,Pyridostigmine in rat organs,"[3]; Fat, 30 min",9.05 ng/mg protein
same,Pyridostigmine in rat organs,"[3]; Heart, 1 HR",78.29 ng/mg protein
same,Pyridostigmine in rat organs,"[3]; Heart, 2 HR",52.4 ng/mg protein
same,Pyridostigmine in rat organs,"[3]; Heart, 3 HR",48.57 ng/mg protein
same,Pyridostigmine in rat organs,"[3]; Heart, 4 HR",23.11 ng/mg protein
same,Pyridostigmine in rat organs,"[3]; Heart, 6 HR",8.52 ng/mg protein
same,Pyridostigmine in rat organs,"[3]; Heart, 5 min",43.78 ng/mg protein
same,Pyridostigmine in rat organs,"[3]; Heart, 10 min",57.5 ng/mg protein
same,Pyridostigmine in rat organs,"[3]; Heart, 15 min",70.4 ng/mg protein
same,Pyridostigmine in rat organs,"[3]; Heart, 30 min",75.96 ng/mg protein
same,Pyridostigmine in rat organs,"[3]; Muscle, 1 HR",9.46 ng/mg protein
same,Pyridostigmine in rat organs,"[3]; Muscle, 2 HR",4.99 ng/mg protein
same,Pyridostigmine in rat organs,"[3]; Muscle, 3 HR",4.8 ng/mg protein
same,Pyridostigmine in rat organs,"[3]; Muscle, 4 HR",3.94 ng/mg protein
same,Pyridostigmine in rat organs,"[3]; Muscle, 6 HR",3.08 ng/mg protein
same,Pyridostigmine in rat organs,"[3]; Muscle, 5 min",9.63 ng/mg protein
same,Pyridostigmine in rat organs,"[3]; Muscle, 10 min",13.57 ng/mg protein
same,Pyridostigmine in rat organs,"[3]; Muscle, 15 min",11.67 ng/mg protein
same,Pyridostigmine in rat organs,"[3]; Muscle, 30 min",10.08 ng/mg protein
same,Pyridostigmine in rat organs,"[3]; Spleen, 1 HR",2.48 ng/mg protein
same,Pyridostigmine in rat organs,"[3]; Spleen, 2 HR",2.40 ng/mg protein
same,Pyridostigmine in rat organs,"[3]; Spleen, 3 HR",2.03 ng/mg protein
same,Pyridostigmine in rat organs,"[3]; Spleen, 4 HR",1.92 ng/mg protein
same,Pyridostigmine in rat organs,"[3]; Spleen, 6 HR",1.86 ng/mg protein
same,Pyridostigmine in rat organs,"[3]; Spleen, 5 min",10.35 ng/mg protein
same,Pyridostigmine in rat organs,"[3]; Spleen, 10 min",6.26 ng/mg protein
same,Pyridostigmine in rat organs,"[3]; Spleen, 15 min",6.15 ng/mg protein
same,Pyridostigmine in rat organs,"[3]; Spleen, 30 min",4.44 ng/mg protein
same,IC 50 (50% inhibition of binding of 3H-pyridostigmine to the antibody),[4],4 ng
same,side effect on intravenous administration,[5]; administered intraveneously,thrombophlebitis
same,adverse muscarinic effects,[5]; certain patients,"nausea, vomitin , diarrhea, miosis, excessive salivation and sweating, abdomimal cramps, bradycardia, bronchial secretion and bronchospasm"
same,toxicity relative to therapeutic levels,[5]; clinical use,toxic at levels very close to those which produce therapeutic results
same,other side effects,"[5]; human, in vivo","generalized weakness, muscle cramps, fasciculation, hypotension"
same,effect of substantial over administration,[5]; overdose,cholinergic crisis leading to death
same,stability,[6]; alkaline solutions,unstable in alkaline solutions
same,solubility,[6]; water and alcohol,freely soluble in water and alcohol
